Assay results as given in ChEMBL document CHEMBL1201862, “PubChem BioAssay data set” (2004).
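Five concentrations, 48 hours, 96-well plates. GI50 marks 50% less growth.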 The source made the active and inactive calls. Rule as the data show it: active = GI50 up to about 1.1 µM and inactive = higher.

Key:
Assay in all cases: DTP human tumour cell line panel, 48 h
DMS-273 = system: DMS-273
CCRF-CEM = system: CCRF-CEM
CAKI-1 = system: CAKI-1
SF-295 = system: SF-295
OVCAR-8 = system: OVCAR-8
K562 = system: K562
OVCAR-4 = system: OVCAR-4
COLO 205 = system: COLO 205
SNB-75 = system: SNB-75
SN12C = system: SN12C
SR = system: SR
NCI-H522 = system: NCI-H522
MOLT-4 = system: MOLT-4
UO-31 = system: UO-31
OVCAR-3 = system: OVCAR-3
LXFL 529 = system: LXFL 529
BT-549 = system: BT-549
NCI/ADR-RES = system: NCI/ADR-RES
MDA-MB-231 = system: MDA-MB-231
T47D = system: T47D

SMILES | GI50 (DMS-273) | GI50 (CCRF-CEM) | GI50 (CAKI-1) | GI50 (SF-295) | GI50 (OVCAR-8) | GI50 (K562) | GI50 (OVCAR-4) | GI50 (COLO 205) | GI50 (SNB-75) | GI50 (SN12C) | GI50 (SR) | GI50 (NCI-H522) | GI50 (MOLT-4) | GI50 (UO-31) | GI50 (OVCAR-3) | GI50 (LXFL 529) | GI50 (BT-549) | GI50 (NCI/ADR-RES) | GI50 (MDA-MB-231) | GI50 (T47D)
CC1=CCC23C(C1)OC(Br)(C=CC2(C)O)C3(C)C (stereo unspecified) | > 100 µM (inactive) | > 100 µM (inactive) | > 100 µM (inactive) | > 100 µM (inactive) | > 100 µM (inactive) | > 100 µM (inactive) | > 100 µM (inactive) | > 100 µM (inactive) | > 100 µM (inactive) | > 100 µM (inactive) |  |  |  |  |  |  |  |  |  | 
COc1ccc(C(=O)C(c2ccc(OCc3ccccc3)cc2)c2ccc(OCc3ccccc3)cc2)cc1 | > 100 µM (inactive) | > 100 µM (inactive) | > 100 µM (inactive) | > 100 µM (inactive) | > 100 µM (inactive) | > 100 µM (inactive) | > 100 µM (inactive) | > 100 µM (inactive) | > 100 µM (inactive) | > 100 µM (inactive) | > 100 µM (inactive) | > 100 µM (inactive) | > 100 µM (inactive) | > 100 µM (inactive) | > 100 µM (inactive) |  |  |  |  | 
CCOC(=O)C12CCCC1(O)N(NC(N)=O)C(C)=C2C(=O)OC (stereo unspecified) | > 100 µM (inactive) | > 100 µM (inactive) | > 100 µM (inactive) | > 100 µM (inactive) | > 100 µM (inactive) | > 100 µM (inactive) | > 100 µM (inactive) | > 100 µM (inactive) |  | > 100 µM (inactive) |  | > 100 µM (inactive) | > 100 µM (inactive) | > 100 µM (inactive) | > 100 µM (inactive) | > 100 µM (inactive) |  |  |  | 
COC1=CC(=O)C2(C=C1OC)OC[C@H]1Oc3c(ccc4c3C=CC(C)(C)O4)C(=O)[C@H]12 (stereo partly specified) | 35.1 µM (inactive) | 28.1 µM (inactive) |  |  | 37.5 µM (inactive) | 36.8 µM (inactive) |  | 36.6 µM (inactive) | 32.1 µM (inactive) |  |  | 16.7 µM (inactive) | 27.4 µM (inactive) | 60.5 µM (inactive) | 42.4 µM (inactive) | 33.3 µM (inactive) |  |  |  | 
Cc1cc([N+](=O)[O-])c(C)c2c1[nH]c1ccc(O)cc12 | > 100 µM (inactive) | 23.4 µM (inactive) | > 100 µM (inactive) | > 100 µM (inactive) | > 100 µM (inactive) | 45.8 µM (inactive) | > 100 µM (inactive) | 64.6 µM (inactive) | > 100 µM (inactive) | > 100 µM (inactive) | 28.8 µM (inactive) | > 10 µM (inactive) | 59.2 µM (inactive) | > 100 µM (inactive) | 60.4 µM (inactive) |  |  |  |  | 
COc1ccc(/C=C/C(=O)c2nc3ccccc3[nH]2)cc1 |  | > 100 µM (inactive) | 33.3 µM (inactive) | 21 µM (inactive) | 21 µM (inactive) | 4.88 µM (inactive) | 21.1 µM (inactive) | 13.2 µM (inactive) | 19.8 µM (inactive) | 25.7 µM (inactive) | 2.71 µM (inactive) | 13.6 µM (inactive) | 18 µM (inactive) | 15.7 µM (inactive) | 17.8 µM (inactive) |  | 22.5 µM (inactive) | 18.2 µM (inactive) | 23.4 µM (inactive) | 10.7 µM (inactive)
CC(C)(C)OC(=O)c1ccc(NCc2cc(O)ccc2O)cc1 |  | 0.363 µM (active) | 0.676 µM (active) | 7.41 µM (inactive) | 2.13 µM (inactive) | 2.03 µM (inactive) | 1.75 µM (inactive) | 2.08 µM (inactive) | 3.4 µM (inactive) | 1.27 µM (inactive) | 0.916 µM (active) | 0.24 µM (active) | 1.03 µM (active) | 1.22 µM (inactive) | 1.04 µM (active) |  | 2 µM (inactive) | 1.73 µM (inactive) | 2.31 µM (inactive) | 1.61 µM (inactive)
